Data taken from ChEMBL document CHEMBL1201862, “PubChem BioAssay data set” (2004).
Calls of active or inactive are those of the source.

Key:
Streptokinase A = target: T1, Streptokinase A (Streptococcus pyogenes serotype M1, UniProt P10520); test: viability-normalized secreted streptokinase activity reduction – plasminogen activation absorbance, OD405, dose response (AID 1914); type: functional, Streptococcus pyogenes M1 GAS;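 also: secreted streptokinase activity via plasminogen activation per viability signal from cell pellet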
T1 sequence (P10520 whole entry): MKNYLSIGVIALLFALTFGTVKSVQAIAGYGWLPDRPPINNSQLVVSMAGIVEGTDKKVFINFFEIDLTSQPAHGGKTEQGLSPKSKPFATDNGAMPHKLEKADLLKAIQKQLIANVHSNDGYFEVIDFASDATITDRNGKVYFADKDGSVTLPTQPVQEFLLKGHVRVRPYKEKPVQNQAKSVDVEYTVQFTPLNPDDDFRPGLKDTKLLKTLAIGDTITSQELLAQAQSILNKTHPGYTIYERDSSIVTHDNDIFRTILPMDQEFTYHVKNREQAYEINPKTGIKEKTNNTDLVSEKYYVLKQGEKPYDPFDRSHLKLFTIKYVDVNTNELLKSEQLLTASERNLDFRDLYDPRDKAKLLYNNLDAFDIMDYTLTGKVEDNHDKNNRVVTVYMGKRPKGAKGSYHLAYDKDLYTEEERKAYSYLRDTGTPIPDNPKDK

[1] = test system: Streptococcus sp. 'group A'; test: Streptococcus pyogenes SK(-)GAS viability under kanamycin – luminescence, BacTiterGlo, confirmation, counter-screen for streptokinase expression inhibitor project, dose response (AID 1900); type: functional, organism-based
Streptococcus = test: GAS UMAA2166 growth inhibition – luminescence, BacTiterGlo, counter-screen for streptokinase expression inhibitor project, dose response (AID 1915); type: functional, organism-based;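 also: potency for reduction of bacterial viability or growth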
[2] = Trypanosoma cruzi growth suppression in host cells – NIH3T3 host cells, beta-gal luminescence, confirmation (AID 2044); type: functional, cell-based;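 also: intracellular parasites grown in NIH/3T3 mouse fibroblasts as host cells; luminescent beta-galactosidase reporter signal from transgenic T. cruzi replicating inside host cells; inhibitors lower the luminescence signal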
[3] = NIH3T3 cell viability loss – ATP luminescence, mouse fibroblasts, counter-screen, dose response (AID 2010); type: functional, cell-based;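 also: cells exposed to compound for about 90 hours before reading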
[4] = luciferase reporter signal suppression in cells – H4 neuroglioma cells, luminescence, dose response (AID 1990); type: functional, cell-based
[5] = alpha-synuclein stem-loop luciferase translation blockers – H4 neuroglioma cells, luminescence, confirmation (AID 1988); type: functional, cell-based
[6] = Luminescence Cell-Based Dose Response HTS to Identify Inhibitors of 5'UTR Stem-Loop Driven Prion Protein mRNA Translation in H4 Neuroglioblastoma Cells. [Related pubchem assays: 1827 (Project Summary), 1813 (Primary HTS)]; type: functional
Cytochrome P450 2C19 = Cytochrome P450 2C19 (Homo sapiens, UniProt P33261); test: Cytochrome panel assay with activity outcomes. Panel member name: p450-cyp2c19 Compounds with AC50 equal or less than 10 uM are considered active; type: functional
[7] = target: T2, Corticotropin-releasing factor receptor 2/Corticotropin-releasing factor-binding protein (Homo sapiens, UniProt P24387+Q13324); test: activators of CRF receptor 2 with binding protein – uHTS hits, confirmation (AID 602473); type: functional; conditions: read-out: EC50_Mean
T2 sequence (Q13324 whole entry): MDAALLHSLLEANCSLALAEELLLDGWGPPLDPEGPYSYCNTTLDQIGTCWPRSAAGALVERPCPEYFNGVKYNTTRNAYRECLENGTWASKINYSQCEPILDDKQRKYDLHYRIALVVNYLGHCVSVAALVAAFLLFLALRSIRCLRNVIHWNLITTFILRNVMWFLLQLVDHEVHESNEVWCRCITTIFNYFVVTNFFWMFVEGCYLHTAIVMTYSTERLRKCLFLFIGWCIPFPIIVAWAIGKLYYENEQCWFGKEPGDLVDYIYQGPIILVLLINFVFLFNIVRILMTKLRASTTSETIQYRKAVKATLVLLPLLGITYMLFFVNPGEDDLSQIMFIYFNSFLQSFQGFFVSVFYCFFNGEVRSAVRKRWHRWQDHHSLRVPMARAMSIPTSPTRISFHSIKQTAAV
T2 sequence (P24387 whole entry): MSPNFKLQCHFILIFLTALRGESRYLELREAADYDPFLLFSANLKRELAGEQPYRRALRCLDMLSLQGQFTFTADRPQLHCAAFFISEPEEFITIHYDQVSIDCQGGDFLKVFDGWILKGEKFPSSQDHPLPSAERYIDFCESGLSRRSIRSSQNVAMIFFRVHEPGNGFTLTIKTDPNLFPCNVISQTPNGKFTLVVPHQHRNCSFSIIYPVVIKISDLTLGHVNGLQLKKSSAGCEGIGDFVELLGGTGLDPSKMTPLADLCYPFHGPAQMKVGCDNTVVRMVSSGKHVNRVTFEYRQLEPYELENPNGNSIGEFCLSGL

Cytochrome P450 2C19, sequence (P33261 whole entry): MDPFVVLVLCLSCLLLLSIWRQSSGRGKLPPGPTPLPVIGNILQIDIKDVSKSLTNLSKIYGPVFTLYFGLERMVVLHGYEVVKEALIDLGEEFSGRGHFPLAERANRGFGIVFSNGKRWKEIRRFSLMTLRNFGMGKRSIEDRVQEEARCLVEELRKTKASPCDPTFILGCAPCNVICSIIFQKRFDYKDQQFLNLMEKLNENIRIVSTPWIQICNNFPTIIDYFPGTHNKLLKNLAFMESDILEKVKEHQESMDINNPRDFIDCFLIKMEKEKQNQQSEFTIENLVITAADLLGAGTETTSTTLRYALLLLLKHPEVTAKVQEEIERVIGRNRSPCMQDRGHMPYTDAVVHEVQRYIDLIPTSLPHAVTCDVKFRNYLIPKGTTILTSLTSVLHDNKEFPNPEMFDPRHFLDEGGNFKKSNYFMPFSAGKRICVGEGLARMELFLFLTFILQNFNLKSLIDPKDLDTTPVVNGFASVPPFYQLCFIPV

| SMILES | EC50 [1] | EC50 (Streptococcus) | EC50 [2] | EC50 [3] | also measured |
| --- | --- | --- | --- | --- | --- |
| O=C(Nc1nnc(SCc2ccc(F)cc2)s1)c1ccc2c(c1)C(=O)N(c1ccccc1Cl)C2=O | 24.3 µM (active) | 101 µM (active) |  |  | EC50 (Streptokinase A): > 150 µM (not active) |
| N#C/C(=C/c1ccc(N2CCCCCC2)o1)c1cccc(F)c1 |  |  | 2.78 µM (active) | > 60 µM (not active) |  |
| Cc1cc(OCCOCCN2CCCC2)ccc1C(C)C |  |  | 0.816 µM (active) | 4.6 µM (active) |  |
| CC(C)=CCC12Oc3cc(O)ccc3C1(O)Oc1cc(O)c([C@H]3C=C(C)CC(c4ccc(O)cc4O)[C@H]3C(=O)c3ccc(O)cc3O)c(O)c1C2=O (stereo not given in full) | 1.15 µM (active) | 1.64 µM (active) |  |  |  |
| COc1ccc(NC(=O)c2ccc([N+](=O)[O-])s2)c([N+](=O)[O-])c1 |  |  | 1.86 µM (active) | > 30 µM (not active) |  |
| CCOC(=O)C1CCCN(Cc2ccc(OCc3ccccc3)cc2)C1 (stereo not given) |  |  | 0.108 µM (active) | > 60 µM (not active) |  |
| Cc1ccc(Nc2nc3nonc3nc2O)cc1Cl | 3.04 µM (active) | 20.6 µM (active) |  |  |  |
| COc1ccc(Cc2noc(CN3CCN(C4CCc5ccccc5C4)CC3)n2)cc1OC (stereo not given) |  |  | 1.23 µM (active) | > 60 µM (not active) |  |
| O=C(Cc1coc2cc3c(cc12)CCC3)OCC(=O)N1CCCC1=O |  |  |  |  | EC50 [4]: > 60 µM (not active); EC50 [5]: 30.1 µM (active); EC50 [6]: > 60 µM (not active) |
| Cc1ccc(Nc2nc3nonc3[nH]c2=O)cc1Cl |  |  |  |  | EC50 (Streptokinase A): 31.1 µM (active) |
| CSc1nnnc2ccccc12 |  |  |  |  | AC50 (Cytochrome P450 2C19): inconclusive |
| CN1CCN(C(CNC(=O)c2ccc(Br)o2)c2ccc(F)cc2)CC1 (stereo not given) |  |  | 0.865 µM (active) | > 60 µM (not active) |  |
| c1ccc(C(c2ccccc2)N2CCN(c3ccc4ccccc4n3)CC2)cc1 |  |  |  |  | EC50 [4]: 16.8 µM (active); EC50 [5]: > 120 µM (not active); EC50 [6]: > 120 µM (not active) |
| Cc1cc(C(=O)NCC23CC4CC(CC(C4)C2)C3)c(C)o1 |  |  | 2.84 µM (active) | > 60 µM (not active) |  |
| CCN(CC(=O)Nc1sc2c(c1C#N)CCCC2)Cc1nc(O)c2ccccc2n1 |  |  |  |  | EC50 [4]: 22.4 µM (active); EC50 [5]: > 120 µM (not active); EC50 [6]: > 120 µM (not active) |
| Cc1ccc(NC(=O)CN(C)Cc2nc(O)c3cc(Br)cc(Br)c3n2)cc1 | 5.34 µM (active) | 12.2 µM (active) |  |  | EC50 (Streptokinase A): > 150 µM (not active) |
| NS(=O)(=O)c1ccc(NC(S)=Nc2ccn(Cc3cccc4ccccc34)n2)cc1 |  |  |  |  | EC50 [4]: 15.6 µM (active); EC50 [5]: > 120 µM (not active); EC50 [6]: > 120 µM (not active) |
| O=C1S/C(=C\c2ccccc2)C(=O)N1CC(O)Cn1c2ccccc2c2ccccc21 (stereo not given) |  |  | 2.64 µM (active) | 11.5 µM (active) |  |
| CCN(CC)C(=O)Cn1c(=O)c2ccccc2n2c(=S)sc(-c3cccc(C)c3)c12 |  |  |  |  | EC50 [7]: > 53 µM (inactive) |
| O=C(Cn1nnc(-c2ccccc2)n1)N/N=C/c1cc([N+](=O)[O-])ccc1O | 0.421 µM (active) | 0.55 µM (active) |  |  |  |
| NNC(=O)CSc1nc(-c2ccccc2)nc2c1CCCC2 | > 150 µM (not active) | > 150 µM (not active) |  |  | EC50 (Streptokinase A): > 150 µM (not active) |
| O=C(C[C@H]1C[C@H](C(=O)N2CCCCC2)[C@@]2(CCc3ccccc3)c3[nH]c4ccc(Cl)cc4c3CCN2C1=O)NCCN1CCOCC1 |  |  |  |  | EC50 [7]: > 53 µM (inactive) |
| COc1cc2ccccc2cc1C(=O)Nc1ccc(NC(=O)c2cccs2)cc1 | 11.5 µM (active) | 29.2 µM (active) |  |  | EC50 (Streptokinase A): > 150 µM (not active) |
